Data published in PMC8048568, “Synthesis of σ Receptor Ligands with a Spirocyclic System Connected with a Tetrahydroisoquinoline Moiety via Different Linkers” (Chemmedchem, 2021).
Like-named read-outs stand apart in the source and are kept apart here.

What was measured:
σ1 receptor [1] = target: σ1 receptor (Cavia porcellus, UniProt Q60492); test: σ1 receptor competitive radioligand binding assay with [3H]-(+)-pentazocine; details: for Ki: K i [nM]±SEM σ1, [3H]-(+)-pentazocine, guinea pig brain homogenate, mean of 3 experiments; for inhibition at 1 µM: read-out: inhibition of the radioligand, σ1
σ2 receptor = target: T1, σ2 receptor (Rattus norvegicus, UniProt Q5U3Y7); test: σ2 receptor competitive radioligand binding assay with [3H]DTG, σ1 masked with (+)-pentazocine; details: for inhibition at 1 µM: read-out: inhibition of the radioligand, σ2, 1 μM of the test compound; for inhibition at 1 µM / inhibition of the radioligand, σ2: [3H]DTG, rat liver; for Ki: K i [nM]±SEM σ2, [3H]DTG, rat liver homogenate, mean of 3 experiments; for inhibition of the radioligand, σ2: 1 μM of the test compound, 1 µM
T1 sequence (Q5U3Y7 1-176): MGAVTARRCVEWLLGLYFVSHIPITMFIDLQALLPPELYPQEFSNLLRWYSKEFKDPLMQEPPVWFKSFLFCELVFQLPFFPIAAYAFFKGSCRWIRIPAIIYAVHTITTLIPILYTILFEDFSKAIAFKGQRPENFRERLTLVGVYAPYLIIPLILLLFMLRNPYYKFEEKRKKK

σ1 receptor [2] = details: cited from earlier work

σ1 receptor (Cavia porcellus, UniProt Q60492), sequence (Q60492 whole entry): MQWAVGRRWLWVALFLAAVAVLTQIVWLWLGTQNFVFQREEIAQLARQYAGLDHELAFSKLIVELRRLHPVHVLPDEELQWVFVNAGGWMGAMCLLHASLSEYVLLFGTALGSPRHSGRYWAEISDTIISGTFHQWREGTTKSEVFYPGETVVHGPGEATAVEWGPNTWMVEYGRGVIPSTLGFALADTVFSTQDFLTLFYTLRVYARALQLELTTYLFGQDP

Row | Compound | Ki (σ1 receptor [1]) | Ki (σ2 receptor) | also measured
1 | COc1cc2c(cc1OC)CN(C(=O)CN1CCC3(CC1)OC(OC)Cc1ccccc13)CC2 (centres unmarked) [Compound 21, 1‐(6,7‐Dimethoxy‐3,4‐dihydroisoquinolin‐2(1H)‐yl)‐2‐{3‐methoxy‐3,4‐dihydrospiro[[2]benzopyran‐1,4′‐piperidin]‐1′‐yl}ethan‐1‐one] | 319 nM |  | inhibition at 1 µM (σ2 receptor): 19%
2 | COc1cc2c(cc1OC)CN(C(=O)CN1CCC3(CC1)OC(OC)c1ccccc13)CC2 (centres unmarked) [Compound 23, 1‐(6,7‐Dimethoxy‐3,4‐dihydroisoquinolin‐2(1H)‐yl)‐2‐{3‐methoxy‐3H‐spiro[[2]benzofuran‐1,4′‐piperidin]‐1′‐yl}ethan‐1‐one] |  |  | inhibition at 1 µM (σ1 receptor [1]): 0%; inhibition at 1 µM (σ2 receptor): 0%
3 | COc1cc2c(cc1OC)CN(CC(=O)N1CCC3(CC1)OC(OC)Cc1ccccc13)CC2 (centres unmarked) [Compound 25, 2‐(6,7‐Dimethoxy‐3,4‐dihydroisoquinolin‐2(1H)‐yl)‐1‐(3‐methoxy‐3,4‐dihydrospiro[[2]benzopyran‐1,4′‐piperidin]‐1′‐yl)ethan‐1‐one] | 518 nM | 534 nM | 
4 | COc1cc2c(cc1OC)CN(CC(=O)N1CCC3(CC1)OC(OC)c1ccccc13)CC2 (centres unmarked) [Compound 28, 2‐(6,7‐Dimethoxy‐3,4‐dihydroisoquinolin‐2(1H)‐yl)‐1‐{3‐methoxy‐3H‐spiro[[2]benzofuran‐1,4′‐piperidin]‐1′‐yl}ethan‐1‐one] |  | 3400 nM | inhibition at 1 µM (σ1 receptor [1]): 19%
5 | COc1cc2c(cc1OC)CN(CCN1CCC3(CC1)OC(OC)Cc1ccccc13)CC2 (centres unmarked) [Compound 30, 1′‐[2‐(6,7‐Dimethoxy‐3,4‐dihydroisoquinolin‐2(1H)‐yl)ethyl]‐3‐methoxy‐3,4‐dihydrospiro[[2]benzopyran‐1,4′‐piperidine]] | 608 nM | 348 nM | 
7 | COc1cc2c(cc1OC)CN(C(=O)CNC1CCC3(CC1)OC(OC)Cc1ccccc13)CC2 (stereo not drawn) [cis‐22, cis‐1‐(6,7‐Dimethoxy‐3,4‐dihydroisoquinolin‐2(1H)‐yl)‐2‐[N‐(3‐methoxy‐3,4‐dihydrospiro[[2]benzopyran‐1,1′‐cyclohexan]‐4′‐yl)amino]ethan‐1‐one] | 740 nM |  | inhibition at 1 µM (σ2 receptor): 11%
8 | COc1cc2c(cc1OC)CN(C(=O)CNC1CCC3(CC1)OC(OC)c1ccccc13)CC2 (stereo not drawn) [cis‐24, cis‐1‐(6,7‐Dimethoxy‐3,4‐dihydroisoquinolin‐2(1H)‐yl)‐2‐[N‐(3‐methoxy‐3H‐spiro[[2]benzofuran‐1,1′‐cyclohexan]‐4′‐yl)amino]ethan‐1‐one] | 1600 nM |  | inhibition of the radioligand, σ2 (σ2 receptor): 9%
9 | COc1cc2c(cc1OC)CN(CC(=O)NC1CCC3(CC1)OC(OC)Cc1ccccc13)CC2 (stereo not drawn) [cis‐26, cis‐2‐(6,7‐Dimethoxy‐3,4‐dihydroisoquinolin‐2(1H)‐yl)‐N‐(3‐methoxy‐3,4‐dihydrospiro[[2]benzopyran‐1,1′‐cyclohexan]‐4′‐yl)acetamide] | 1000 nM | 371 nM | 
10 | COc1cc2c(cc1OC)CN(CCCC(=O)NC1CCC3(CC1)OC(OC)Cc1ccccc13)CC2 (stereo not drawn) [cis‐27, cis‐4‐(6,7‐Dimethoxy‐3,4‐dihydroisoquinolin‐2(1H)‐yl)‐N‐(3‐methoxy‐3,4‐dihydrospiro[[2]benzopyran‐1,1′‐cyclohexan]‐4′‐yl)butanamide] | 712 nM | 2100 nM | 
11 | COc1cc2c(cc1OC)CN(CC(=O)NC1CCC3(CC1)OC(OC)c1ccccc13)CC2 (stereo not drawn) [cis‐29, cis‐2‐(6,7‐Dimethoxy‐3,4‐dihydroisoquinolin‐2(1H)‐yl)‐N‐(3‐methoxy‐3H‐spiro[[2]benzofuran‐1,1′‐cyclohexan]‐4′‐yl)acetamide] | 129 nM |  | inhibition at 1 µM (σ2 receptor): 0%
12 | COc1cc2c(cc1OC)CN(CCNC1CCC3(CC1)OC(OC)Cc1ccccc13)CC2 (stereo not drawn) [cis‐31, cis‐N‐[2‐(6,7‐Dimethoxy‐3,4‐dihydroisoquinolin‐2(1H)‐yl)ethyl]‐3‐methoxy‐3,4‐dihydrospiro[[2]benzopyran‐1,1′‐cyclohexan]‐4′‐amine] | 251 nM | 200 nM | 
13 | Fc1ccc(-n2cc(CCCCN3CCC4(CC3)OCc3ccccc34)c3ccccc32)cc1 [siramesine] |  |  | Ki (σ1 receptor [2]; read-out: K i σ1 receptor): 17 nM
14 | COc1cc2c(cc1OC)CN(C(=O)CNC1CCC3(CC1)OC(OC)c1ccccc13)CC2 (stereo not drawn) [trans‐24, trans‐1‐(6,7‐Dimethoxy‐3,4‐dihydroisoquinolin‐2(1H)‐yl)‐2‐[N‐(3‐methoxy‐3H‐spiro[[2]benzofuran‐1,1′‐cyclohexan]‐4′‐yl)amino]ethan‐1‐one] |  |  | inhibition at 1 µM (σ1 receptor [1]): 15%; inhibition of the radioligand, σ2 (σ2 receptor): 0%
15 | COc1cc2c(cc1OC)CN(CC(=O)NC1CCC3(CC1)OC(OC)Cc1ccccc13)CC2 (stereo not drawn) [trans‐26, trans‐2‐(6,7‐Dimethoxy‐3,4‐dihydroisoquinolin‐2(1H)‐yl)‐N‐(3‐methoxy‐3,4‐dihydrospiro[[2]benzopyran‐1,1′‐cyclohexan]‐4′‐yl)acetamide] |  |  | inhibition at 1 µM (σ1 receptor [1]): 7%; inhibition at 1 µM (σ2 receptor): 4%
16 | COc1cc2c(cc1OC)CN(CC(=O)NC1CCC3(CC1)OC(OC)c1ccccc13)CC2 (stereo not drawn) [trans‐29, trans‐2‐(6,7‐Dimethoxy‐3,4‐dihydroisoquinolin‐2(1H)‐yl)‐N‐(3‐methoxy‐3H‐spiro[[2]benzofuran‐1,1′‐cyclohexan]‐4′‐yl)acetamide] | 1300 nM | 1900 nM | 
17 | COc1cc2c(cc1OC)CN(CCNC1CCC3(CC1)OC(OC)Cc1ccccc13)CC2 (stereo not drawn) [trans‐31, trans‐N‐[2‐(6,7‐Dimethoxy‐3,4‐dihydroisoquinolin‐2(1H)‐yl)ethyl]‐3‐methoxy‐3,4‐dihydrospiro[[2]benzopyran‐1,1′‐cyclohexan]‐4′‐amine] | 1400 nM | 499 nM | 
